Experimental data: the supplement of paper PMC10307832

Tests used:
Test in all cases: relative viability (nuclei count vs DMSO), 5 days (fraction); higher = more cells survive
NCI-H2085 = test system: NCI-H2085
In short: (§1)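 Each reported value is a median over duplicate plates. It expresses relative viability: treated-well nuclei count divided by vehicle-well nuclei count. Lung cancer cell lines in 1536-well plates were dosed by pin tool a day after seeding, alone with one drug or with a fixed anchor-drug dose plus five library-drug doses (not always all listed) in √10 steps, and nuclei were counted after 5 days.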

NCI-H358 = test system: NCI-H358
In short: as §1

SW 1573 = test system: SW 1573
In short: as §1

201T = test system: 201T
In short: as §1

LCLC-97TM1 = test system: LCLC-97TM1
In short: as §1

NCI-H1975 = test system: NCI-H1975
In short: as §1

HCC-44 = test system: HCC-44
In short: as §1

NCI-H2342 = test system: NCI-H2342
In short: as §1

H3255 = test system: H3255
In short: as §1

BEN = test system: BEN
In short: as §1

NCI-H1437 = test system: NCI-H1437
In short: as §1

NCI-H1666 = test system: NCI-H1666
In short: as §1

NCI-H647 = test system: NCI-H647
In short: as §1

EPLC-272H = test system: EPLC-272H
In short: as §1

PC-3 [JPC-3] = test system: PC-3 [JPC-3]
In short: as §1

LU99A = test system: LU99A
In short: as §1

NCI-H1395 = test system: NCI-H1395
In short: as §1

NCI-H2126 = test system: NCI-H2126
In short: as §1

COR-L 105 = test system: COR-L 105
In short: as §1

LOU-NH91 = test system: LOU-NH91
In short: as §1

HCC-827 = test system: HCC-827
In short: as §1

EKVX = test system: EKVX
In short: as §1

NCI-H2087 = test system: NCI-H2087
In short: as §1

HOP-62 = test system: HOP-62
In short: as §1

C[C@@H]1CN(CC(=O)Nc2ccc3c(c2)Cc2cccc(-c4cc(=O)cc(N5CCOCC5)o4)c2S3)C[C@H](C)O1 + Nc1ncn([C@H]2C[C@H](O)[C@@H](CO)O2)c(=O)n1 [Decitabine] (partner 2 µM)
relative viability (NCI-H2085; first compound 0.04 µM): 0.564 | relative viability (NCI-H2085; first compound 0.1265 µM): 0.589 | relative viability (NCI-H2085; first compound 0.4 µM): 0.605 | relative viability (NCI-H2085; first compound 4 µM): 0.584 | relative viability (NCI-H358; first compound 0.04 µM): 0.181 | relative viability (NCI-H358; first compound 0.1265 µM): 0.204 | relative viability (NCI-H358; first compound 0.4 µM): 0.172 | relative viability (NCI-H358; first compound 4 µM): 0.14 | relative viability (SW 1573; first compound 0.04 µM): 0.572 | relative viability (SW 1573; first compound 0.1265 µM): 0.56 | relative viability (SW 1573; first compound 0.4 µM): 0.483 | relative viability (SW 1573; first compound 4 µM): 0.615 | relative viability (201T; first compound 0.04 µM): 0.816 | relative viability (201T; first compound 0.1265 µM): 0.818 | relative viability (201T; first compound 0.4 µM): 0.84 | relative viability (201T; first compound 4 µM): 0.791 | relative viability (LCLC-97TM1; first compound 0.1265 µM): 0.231 | relative viability (LCLC-97TM1; first compound 0.4 µM): 0.279 | relative viability (LCLC-97TM1; first compound 4 µM): 0.273 | relative viability (NCI-H1975; first compound 0.04 µM): 0.412 | relative viability (NCI-H1975; first compound 0.1265 µM): 0.44 | relative viability (NCI-H1975; first compound 0.4 µM): 0.364 | relative viability (NCI-H1975; first compound 4 µM): 0.347 | relative viability (HCC-44; first compound 0.04 µM): 0.898 | relative viability (HCC-44; first compound 0.1265 µM): 0.93 | relative viability (HCC-44; first compound 0.4 µM): 0.972 | relative viability (HCC-44; first compound 4 µM): 0.953 | relative viability (NCI-H2342; first compound 0.04 µM): 0.76 | relative viability (NCI-H2342; first compound 0.1265 µM): 0.779 | relative viability (NCI-H2342; first compound 0.4 µM): 0.71 | relative viability (NCI-H2342; first compound 4 µM): 0.704 | relative viability (H3255; first compound 0.04 µM): 0.682 | relative viability (H3255; first compound 0.1265 µM): 0.615 | relative viability (H3255; first compound 0.4 µM): 0.558 | relative viability (H3255; first compound 4 µM): 0.509 | relative viability (BEN; first compound 0.04 µM): 0.702 | relative viability (BEN; first compound 0.1265 µM): 0.696 | relative viability (BEN; first compound 0.4 µM): 0.81 | relative viability (BEN; first compound 4 µM): 0.735 | relative viability (NCI-H1437; first compound 0.04 µM): 0.648 | relative viability (NCI-H1437; first compound 0.1265 µM): 0.591 | relative viability (NCI-H1437; first compound 0.4 µM): 0.625 | relative viability (NCI-H1437; first compound 4 µM): 0.608 | relative viability (NCI-H1666; first compound 0.04 µM): 0.744 | relative viability (NCI-H1666; first compound 0.1265 µM): 0.743 | relative viability (NCI-H1666; first compound 0.4 µM): 0.677 | relative viability (NCI-H1666; first compound 4 µM): 0.669 | relative viability (NCI-H647; first compound 0.04 µM): 0.442 | relative viability (NCI-H647; first compound 0.1265 µM): 0.376 | relative viability (NCI-H647; first compound 0.4 µM): 0.369 | relative viability (NCI-H647; first compound 4 µM): 0.346 | relative viability (EPLC-272H; first compound 0.04 µM): 0.386 | relative viability (EPLC-272H; first compound 0.1265 µM): 0.384 | relative viability (EPLC-272H; first compound 0.4 µM): 0.394 | relative viability (EPLC-272H; first compound 4 µM): 0.364 | relative viability (PC-3 [JPC-3]; first compound 0.04 µM): 0.789 | relative viability (PC-3 [JPC-3]; first compound 0.1265 µM): 0.841 | relative viability (PC-3 [JPC-3]; first compound 0.4 µM): 0.854 | relative viability (PC-3 [JPC-3]; first compound 4 µM): 0.781 | relative viability (LU99A; first compound 0.04 µM): 0.815 | relative viability (LU99A; first compound 0.1265 µM): 0.928 | relative viability (LU99A; first compound 0.4 µM): 0.859 | relative viability (LU99A; first compound 4 µM): 0.851 | relative viability (NCI-H1395; first compound 0.1265 µM): 0.763 | relative viability (NCI-H1395; first compound 0.4 µM): 0.653 | relative viability (NCI-H1395; first compound 4 µM): 0.752 | relative viability (NCI-H2126; first compound 0.04 µM): 0.543 | relative viability (NCI-H2126; first compound 0.1265 µM): 0.567 | relative viability (NCI-H2126; first compound 0.4 µM): 0.623 | relative viability (NCI-H2126; first compound 4 µM): 0.593 | relative viability (COR-L 105; first compound 0.04 µM): 0.644 | relative viability (COR-L 105; first compound 0.1265 µM): 0.661 | relative viability (COR-L 105; first compound 0.4 µM): 0.723 | relative viability (COR-L 105; first compound 4 µM): 0.654 | relative viability (LOU-NH91; first compound 0.04 µM): 0.857 | relative viability (LOU-NH91; first compound 0.1265 µM): 0.819 | relative viability (LOU-NH91; first compound 0.4 µM): 0.81 | relative viability (LOU-NH91; first compound 4 µM): 0.749 | relative viability (HCC-827; first compound 0.04 µM): 0.355 | relative viability (HCC-827; first compound 0.1265 µM): 0.362 | relative viability (HCC-827; first compound 0.4 µM): 0.418 | relative viability (HCC-827; first compound 4 µM): 0.382 | relative viability (EKVX; first compound 0.04 µM): 0.302 | relative viability (EKVX; first compound 0.1265 µM): 0.368 | relative viability (EKVX; first compound 0.4 µM): 0.303 | relative viability (EKVX; first compound 4 µM): 0.317 | relative viability (NCI-H2087; first compound 0.04 µM): 0.306 | relative viability (NCI-H2087; first compound 0.1265 µM): 0.336 | relative viability (NCI-H2087; first compound 0.4 µM): 0.267 | relative viability (NCI-H2087; first compound 4 µM): 0.254 | relative viability (HOP-62; first compound 0.04 µM): 0.229 | relative viability (HOP-62; first compound 0.1265 µM): 0.202 | relative viability (HOP-62; first compound 0.4 µM): 0.187 | relative viability (HOP-62; first compound 4 µM): 0.245
